Results: patent US11945822B2, “Pyrazolo-triazine and/or pyrazolo-pxrimidine derivatives as selective inhibitor of cyclin dependent kinase” (QURIENT CO., LTD., priority 2018, dated 2024)

target: T1, CDK1/Cyclin B (Homo sapiens, UniProt P06493); assay: Enzymatic assay for CDK1 (FRET based LANCE Ultra kinase assay); type: biochemical; conditions: read-out: CDK1 enzymatic activity (IC50 range)
T1 construct: purchased Invitrogen PR4768C
Procedure, shortened: (§1)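 Each CDK complex ([…]) phosphorylated 68 nM ULight-MBP peptide with ATP at Km for 60 min at 23° C., against 8 compound doses (4-fold dilutions). EDTA/Eu-anti-phospho-MBP detection, 60 min, then TR-FRET emission at 615 and 665 nm.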

T1 sequence (P06493 whole entry): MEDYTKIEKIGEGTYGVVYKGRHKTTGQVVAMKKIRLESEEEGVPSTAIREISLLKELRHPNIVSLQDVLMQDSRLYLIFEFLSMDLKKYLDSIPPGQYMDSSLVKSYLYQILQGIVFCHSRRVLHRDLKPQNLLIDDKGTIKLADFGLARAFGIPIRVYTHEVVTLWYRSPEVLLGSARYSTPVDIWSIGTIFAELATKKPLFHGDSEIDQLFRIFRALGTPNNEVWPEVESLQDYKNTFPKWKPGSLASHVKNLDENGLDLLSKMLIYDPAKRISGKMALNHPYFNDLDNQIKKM
T1 sequence (P14635 whole entry partner): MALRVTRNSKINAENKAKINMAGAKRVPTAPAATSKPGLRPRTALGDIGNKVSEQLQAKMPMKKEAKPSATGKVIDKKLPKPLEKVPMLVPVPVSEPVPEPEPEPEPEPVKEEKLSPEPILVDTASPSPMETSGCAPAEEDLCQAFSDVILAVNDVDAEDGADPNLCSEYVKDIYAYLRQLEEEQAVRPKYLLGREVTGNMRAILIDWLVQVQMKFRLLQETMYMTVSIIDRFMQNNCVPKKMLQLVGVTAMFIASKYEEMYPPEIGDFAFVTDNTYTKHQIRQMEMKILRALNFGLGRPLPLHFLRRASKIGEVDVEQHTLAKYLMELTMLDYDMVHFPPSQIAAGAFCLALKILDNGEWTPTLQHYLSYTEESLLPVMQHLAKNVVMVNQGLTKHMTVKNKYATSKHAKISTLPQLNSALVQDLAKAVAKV

IC50 | Compound
> 1000 nM | CC(C)c1cnn2c(NCc3c(Cl)cccc3-n3ccc(C(C)(C)O)n3)nc(N3CCC(O)(CN)CC3)nc12 [Compound 238]
> 1000 nM | CC(C)c1cnn2c(NCc3c(Cl)cccc3-c3cccc(C(C)(C)O)n3)nc(N3CCC(N)CC3)nc12 [Compound 241]
> 1000 nM | Cc1cccc(-n2ccc(C(C)(C)O)n2)c1CNc1nc(N2CCC(N)CC2)nc2c(C(C)C)cnn12 [Compound 230]
> 1000 nM | CC(C)c1cnn2c(NCc3ccccc3-c3cc4ccccc4[nH]3)nc(N3CCC(N)(CO)CC3)nc12 [Compound 129]

target: T2, CDK2/Cyclin A (Homo sapiens, UniProt P24941); assay: Enzymatic assay for CDK2 (FRET based LANCE Ultra kinase assay); type: biochemical; conditions: read-out: CDK2 enzymatic activity (IC50 range)
T2 construct: purchased Invitrogen PV6290
Procedure, shortened: as §1

IC50 | Compound
> 1000 nM | CC(C)c1cnn2c(NCc3c(Cl)cccc3-n3ccc(C(C)(C)O)n3)nc(N3CCC(O)(CN)CC3)nc12 [Compound 238]
> 1000 nM | CC(C)c1cnn2c(NCc3c(Cl)cccc3-c3cccc(C(C)(C)O)n3)nc(N3CCC(N)CC3)nc12 [Compound 241]
> 1000 nM | Cc1cccc(-n2ccc(C(C)(C)O)n2)c1CNc1nc(N2CCC(N)CC2)nc2c(C(C)C)cnn12 [Compound 230]
100 to 1000 nM | CC(C)c1cnn2c(NCc3ccccc3-c3cc4ccccc4[nH]3)nc(N3CCC(N)(CO)CC3)nc12 [Compound 129]

target: T3, CDK5/p25 (Homo sapiens, UniProt Q00535); assay: Enzymatic assay for CDK5 (FRET based LANCE Ultra kinase assay); type: biochemical; conditions: read-out: CDK5 enzymatic activity (IC50 range)
T3 construct: purchased Invitrogen PR8543B
Procedure, shortened: as §1

T3 sequence (Q00535 whole entry): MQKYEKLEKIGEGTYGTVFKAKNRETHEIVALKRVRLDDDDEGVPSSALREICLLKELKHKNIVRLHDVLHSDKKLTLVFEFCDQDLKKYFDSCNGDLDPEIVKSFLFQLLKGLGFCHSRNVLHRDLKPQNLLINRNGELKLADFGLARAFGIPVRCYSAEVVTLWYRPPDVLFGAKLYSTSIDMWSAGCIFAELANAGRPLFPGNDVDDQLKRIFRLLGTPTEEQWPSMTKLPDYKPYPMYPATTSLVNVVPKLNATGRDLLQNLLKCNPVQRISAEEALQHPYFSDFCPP
T3 sequence (Q15078 99-307 partner limits assumed): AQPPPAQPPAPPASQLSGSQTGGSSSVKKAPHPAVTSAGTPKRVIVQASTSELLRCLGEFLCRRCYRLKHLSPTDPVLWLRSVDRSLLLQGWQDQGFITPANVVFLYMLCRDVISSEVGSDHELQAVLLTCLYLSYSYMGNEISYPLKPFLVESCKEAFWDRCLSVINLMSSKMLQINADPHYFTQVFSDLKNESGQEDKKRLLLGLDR

IC50 | Compound
> 1000 nM | CC(C)c1cnn2c(NCc3c(Cl)cccc3-n3ccc(C(C)(C)O)n3)nc(N3CCC(O)(CN)CC3)nc12 [Compound 238]
> 1000 nM | CC(C)c1cnn2c(NCc3c(Cl)cccc3-c3cccc(C(C)(C)O)n3)nc(N3CCC(N)CC3)nc12 [Compound 241]
> 1000 nM | Cc1cccc(-n2ccc(C(C)(C)O)n2)c1CNc1nc(N2CCC(N)CC2)nc2c(C(C)C)cnn12 [Compound 230]
100 to 1000 nM | CC(C)c1cnn2c(NCc3ccccc3-c3cc4ccccc4[nH]3)nc(N3CCC(N)(CO)CC3)nc12 [Compound 129]

target: T4, CDK7/Cyclin H/MNAT1 (Homo sapiens, UniProt P50613); assay: Enzymatic assay for CDK7 (FRET based LANCE Ultra kinase assay); type: biochemical; conditions: CDK7 over CDK1
T4 construct: purchased Invitrogen PR6749B
Procedure, shortened: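 Inhibition was measured at Km ATP by time-resolved FRET between a Eu anti-phospho antibody and a phosphorylated ULight peptide. The enzyme was the purified CDK7/cyclin complex, and data were curve-fitted.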

T4 sequence (P50613 whole entry): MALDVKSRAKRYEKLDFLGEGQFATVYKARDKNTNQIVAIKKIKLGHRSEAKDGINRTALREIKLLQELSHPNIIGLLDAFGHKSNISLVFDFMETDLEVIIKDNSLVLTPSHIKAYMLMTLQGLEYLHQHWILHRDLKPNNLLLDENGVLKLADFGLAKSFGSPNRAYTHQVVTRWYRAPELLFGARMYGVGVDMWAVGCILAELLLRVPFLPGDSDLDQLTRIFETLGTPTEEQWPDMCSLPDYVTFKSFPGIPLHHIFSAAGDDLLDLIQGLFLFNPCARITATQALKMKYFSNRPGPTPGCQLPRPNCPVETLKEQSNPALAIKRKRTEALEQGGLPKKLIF
T4 sequence (P51946 whole entry partner): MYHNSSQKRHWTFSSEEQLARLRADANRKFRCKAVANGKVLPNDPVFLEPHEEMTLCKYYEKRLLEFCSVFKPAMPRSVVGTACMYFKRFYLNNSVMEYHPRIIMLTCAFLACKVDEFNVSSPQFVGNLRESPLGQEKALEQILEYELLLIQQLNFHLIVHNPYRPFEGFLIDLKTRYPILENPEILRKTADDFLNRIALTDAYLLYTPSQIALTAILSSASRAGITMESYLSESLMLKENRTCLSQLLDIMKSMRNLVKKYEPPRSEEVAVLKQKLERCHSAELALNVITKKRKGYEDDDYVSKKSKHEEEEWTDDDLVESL
T4 sequence (P51948 whole entry partner): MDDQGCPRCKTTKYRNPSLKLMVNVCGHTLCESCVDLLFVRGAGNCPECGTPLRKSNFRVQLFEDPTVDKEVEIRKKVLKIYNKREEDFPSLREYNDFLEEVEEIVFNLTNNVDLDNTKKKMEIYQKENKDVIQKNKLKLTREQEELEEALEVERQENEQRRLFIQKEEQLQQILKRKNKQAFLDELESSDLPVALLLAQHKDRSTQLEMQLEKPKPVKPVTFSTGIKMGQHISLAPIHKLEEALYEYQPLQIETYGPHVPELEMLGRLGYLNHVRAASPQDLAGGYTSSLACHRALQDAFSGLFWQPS

CDK1/CDK7: Selectivity of CDK7 inhibition over CDK1 inhibition | Compound
A (A=greater than 200 fold) | CC(C)c1cnn2c(NCc3c(Cl)cccc3-n3ccc(C(C)(C)O)n3)nc(N3CCC(O)(CN)CC3)nc12 [Compound 238]
A (A=greater than 200 fold) | CC(C)c1cnn2c(NCc3c(Cl)cccc3-c3cccc(C(C)(C)O)n3)nc(N3CCC(N)CC3)nc12 [Compound 241]
A (A=greater than 200 fold) | Cc1cccc(-n2ccc(C(C)(C)O)n2)c1CNc1nc(N2CCC(N)CC2)nc2c(C(C)C)cnn12 [Compound 230]
A (A=greater than 200 fold) | CC(C)c1cnn2c(NCc3ccccc3-c3cc4ccccc4[nH]3)nc(N3CCC(N)(CO)CC3)nc12 [Compound 129]

same assay, conditions: CDK7 over CDK2

CDK2/CDK7: Selectivity of CDK7 inhibition over CDK2 inhibition | Compound
A (A=greater than 200 fold) | CC(C)c1cnn2c(NCc3c(Cl)cccc3-n3ccc(C(C)(C)O)n3)nc(N3CCC(O)(CN)CC3)nc12 [Compound 238]
A (A=greater than 200 fold) | CC(C)c1cnn2c(NCc3c(Cl)cccc3-c3cccc(C(C)(C)O)n3)nc(N3CCC(N)CC3)nc12 [Compound 241]
A (A=greater than 200 fold) | Cc1cccc(-n2ccc(C(C)(C)O)n2)c1CNc1nc(N2CCC(N)CC2)nc2c(C(C)C)cnn12 [Compound 230]
A (A=greater than 200 fold) | CC(C)c1cnn2c(NCc3ccccc3-c3cc4ccccc4[nH]3)nc(N3CCC(N)(CO)CC3)nc12 [Compound 129]

same assay, conditions: CDK7 over CDK5

Compound | CDK5/CDK7: Selectivity of CDK7 inhibition over CDK5 inhibition
CC(C)c1cnn2c(NCc3c(Cl)cccc3-n3ccc(C(C)(C)O)n3)nc(N3CCC(O)(CN)CC3)nc12 [Compound 238] | A (A=greater than 200 fold)
CC(C)c1cnn2c(NCc3c(Cl)cccc3-c3cccc(C(C)(C)O)n3)nc(N3CCC(N)CC3)nc12 [Compound 241] | B (B=less than 200 fold, but greater than 20 fold)
Cc1cccc(-n2ccc(C(C)(C)O)n2)c1CNc1nc(N2CCC(N)CC2)nc2c(C(C)C)cnn12 [Compound 230] | A (A=greater than 200 fold)
CC(C)c1cnn2c(NCc3ccccc3-c3cc4ccccc4[nH]3)nc(N3CCC(N)(CO)CC3)nc12 [Compound 129] | B (B=less than 200 fold, but greater than 20 fold)

same assay, conditions: read-out: CDK7 enzymatic activity (IC50 range)

IC50 | Compound
< 100 nM | CC(C)c1cnn2c(NCc3c(Cl)cccc3-n3ccc(C(C)(C)O)n3)nc(N3CCC(O)(CN)CC3)nc12 [Compound 238]
< 100 nM | CC(C)c1cnn2c(NCc3c(Cl)cccc3-c3cccc(C(C)(C)O)n3)nc(N3CCC(N)CC3)nc12 [Compound 241]
< 100 nM | Cc1cccc(-n2ccc(C(C)(C)O)n2)c1CNc1nc(N2CCC(N)CC2)nc2c(C(C)C)cnn12 [Compound 230]
< 100 nM | CC(C)c1cnn2c(NCc3ccccc3-c3cc4ccccc4[nH]3)nc(N3CCC(N)(CO)CC3)nc12 [Compound 129]

tested on: HCT116; assay: Cellular HCT116 viability assay (CellTiter-Glo, 72 hours); type: cell-based; conditions: Homo sapiens, HCT-116
Procedure, shortened: (§2)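 Luminescent ATP read-out (CellTiter-Glo) after 72 h compound exposure at 37 °C/5% CO2; duplicate wells; vehicle control DMSO <0.1% final; seeding density set per cell line.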

IC50 | Compound
< 1000 nM | CC(C)c1cnn2c(NCc3c(Cl)cccc3-n3ccc(C(C)(C)O)n3)nc(N3CCC(O)(CN)CC3)nc12 [Compound 238]
< 1000 nM | CC(C)c1cnn2c(NCc3c(Cl)cccc3-c3cccc(C(C)(C)O)n3)nc(N3CCC(N)CC3)nc12 [Compound 241]
< 1000 nM | Cc1cccc(-n2ccc(C(C)(C)O)n2)c1CNc1nc(N2CCC(N)CC2)nc2c(C(C)C)cnn12 [Compound 230]

tested on: H460; assay: Cellular H460 viability assay (CellTiter-Glo, 72 hours); type: cell-based; conditions: Homo sapiens, NCI-H460
Procedure, shortened: as §2

IC50 | Compound
< 1000 nM | CC(C)c1cnn2c(NCc3c(Cl)cccc3-n3ccc(C(C)(C)O)n3)nc(N3CCC(O)(CN)CC3)nc12 [Compound 238]
< 1000 nM | CC(C)c1cnn2c(NCc3c(Cl)cccc3-c3cccc(C(C)(C)O)n3)nc(N3CCC(N)CC3)nc12 [Compound 241]
< 1000 nM | Cc1cccc(-n2ccc(C(C)(C)O)n2)c1CNc1nc(N2CCC(N)CC2)nc2c(C(C)C)cnn12 [Compound 230]
< 1000 nM | CC(C)c1cnn2c(NCc3ccccc3-c3cc4ccccc4[nH]3)nc(N3CCC(N)(CO)CC3)nc12 [Compound 129]

tested on: MV4-11; assay: Cellular MV4-11 viability assay (CellTiter-Glo, 72 hours); type: cell-based; conditions: Homo sapiens
Procedure, shortened: as §2

IC50 | Compound
< 1000 nM | CC(C)c1cnn2c(NCc3c(Cl)cccc3-n3ccc(C(C)(C)O)n3)nc(N3CCC(O)(CN)CC3)nc12 [Compound 238]
< 1000 nM | CC(C)c1cnn2c(NCc3c(Cl)cccc3-c3cccc(C(C)(C)O)n3)nc(N3CCC(N)CC3)nc12 [Compound 241]
< 1000 nM | Cc1cccc(-n2ccc(C(C)(C)O)n2)c1CNc1nc(N2CCC(N)CC2)nc2c(C(C)C)cnn12 [Compound 230]
< 1000 nM | CC(C)c1cnn2c(NCc3ccccc3-c3cc4ccccc4[nH]3)nc(N3CCC(N)(CO)CC3)nc12 [Compound 129]

tested on: RPMI-8226; assay: Cellular RPMI-8226 viability assay (CellTiter-Glo, 72 hours); type: cell-based; conditions: Homo sapiens
Procedure, shortened: as §2

IC50 | Compound
< 1000 nM | CC(C)c1cnn2c(NCc3ccccc3-c3cc4ccccc4[nH]3)nc(N3CCC(N)(CO)CC3)nc12 [Compound 129]

tested on: A2780; assay: Cellular A2780 viability assay (CellTiter-Glo, 72 hours); type: cell-based; conditions: Homo sapiens
Procedure, shortened: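 Compound exposure lasted 72 h at 37° C, 5% CO2, over 0.0015–10 uM, DMSO kept under 0.1%, with dosing 24 h after seeding. Seeding: A2780 1×10^3, OVCAR-3 5×10^3, MM.1S 1×10^4 cells/well in 10% FBS RPMI-1640. Duplicate CellTiter-Glo luminescence readout.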

IC50 | Compound
≤ 1000 nM | CC(C)c1cnn2c(NCc3c(Cl)cccc3-n3ccc(C(C)(C)O)n3)nc(N3CCC(O)(CN)CC3)nc12 [Compound 238]
≤ 1000 nM | CC(C)c1cnn2c(NCc3c(Cl)cccc3-c3cccc(C(C)(C)O)n3)nc(N3CCC(N)CC3)nc12 [Compound 241]
≤ 1000 nM | Cc1cccc(-n2ccc(C(C)(C)O)n2)c1CNc1nc(N2CCC(N)CC2)nc2c(C(C)C)cnn12 [Compound 230]
≤ 1000 nM | CC(C)c1cnn2c(NCc3ccccc3-c3cc4ccccc4[nH]3)nc(N3CCC(N)(CO)CC3)nc12 [Compound 129]
